Measured values as given in patent US20180117006A1, “ANTI-FUGETACTIC AGENT AND IMMUNOTHERAPY AGENT COMBINATION THERAPY AND COMPOSITIONS FOR THE TREATMENT OF CANCER” (THE GENERAL HOSPITAL CORPORATION, priority 2015, published 2018).

System: tumor that expresses high levels of CXCL12
Experiment: Tumor growth in mice with a subcutaneous CXCL12-expressing tumor
Assay type: in vivo
Settings: AMD3100 subcutaneous once a day for 5 days, then NK-92 cells intraperitoneal one to three days after the final dose, contemplated synergistic effect
Method: Mice are injected with tumor cells (subcutaneous injection) from a tumor that expresses high levels of CXCL12 and a tumor allowed to develop. Once the tumor has formed, the mice are injected (subcutaneous in the same flank as the tumor) with AMD3100 or vehicle, once a day for 5 days.
One to three days after the final dose of AMD3100, mice are injected via intraperitoneal injection with NK-92 cells or vehicle 18 hours prior to assay of tumor growth. Tumor growth in mice is delayed by NK-92 cell treatment, but resumes soon after the treatment is discontinued in mice that were not administered AMD3100.

c1cc(CN2CCCNCCNCCCNCC2)ccc1CN1CCCNCCNCCCNCC1 [AMD3100]
Delay in tumor growth (co-treatment): longer than NK-92 cells alone
